Patent US10300155B2, “Alpha-synuclein ligands” (Washington University, priority 2015, dated 2019)
“And” between values parts separate entries of the source, which are not always exact repeats. Identical values can stand only once. Like-named read-outs stand apart in the source and are kept apart here.

How the values were obtained:
[1] = Biodistribution in male Balb/C mice; type: in vivo; details: for Biodistribution: Blood / Biodistribution: Bone / Biodistribution: Brain / Biodistribution: Fat / Biodistribution: Heart / Biodistribution: Kidney / Biodistribution: Liver / Biodistribution: Lung / Biodistribution: Muscle / Biodistribution: Pancreas / Biodistribution: Spleen: tail vein, mean ± SD, n = 4; for crossing of the blood brain barrier: judged from brain uptake at 5 min
Protocol: For the biodistribution studies, 100˜130 μCi of [^11C] TZ-20-35 in ˜100 μL of 10% ethanol/saline solution (v/v) was injected via the tail vein into mature male Balb/C mice (19-24 g) under anesthesia (2.5% isoflurane in oxygen at a flow rate of 1 mL/min). A group of at least four […] were used for each time point. […] The whole brain was quickly harvested. At the same time, samples of blood, heart, lung, liver, spleen, pancreas, kidney, muscle, fat, and tail were dissected. All the tissue samples were collected in tared tubes and counted in an automated gamma counter (Beckman Gamma 8000 well counter) with standards, prepared by diluting the injectate. The counted tissues were then weighed, and the % ID/g was calculated (Table 4).

[2] = target: T1, α-synuclein fibrils (Homo sapiens, UniProt P37840); experiment: ThT competitive assay for α-synuclein fibrils (Table 1); type: binding; details: for EC50: α-synuclein fibrils
T1 construct: made in house; host or cells: E. coli BL21(DE3)RIL
Protocol: Upon binding to amyloid fibrils, a peak at approximately 440 nm becomes dominant with the fluorescent emission maximum shifted to 480 nm. This is accompanied by a strong enhancement of the fluorescence.
α-Synuclein recombinant protein was produced in E. coli. […] Freshly transformed BL21 colonies were inoculated into 2 L baffled flasks containing 250 mL sterilized TB (1.2% bactotryptone, 2.4% yeast extract, 0.4% glycerol, 0.17 M KH2PO4, 0.72 M K2HPO4) with 50 μg/ml ampicillin, and incubated overnight at 37° C. with shaking.
To determine the concentration of fibrils, the reaction mixture (100 μL) was centrifuged at 18,000×g for 10 minutes to separate fibrils from monomer. The α-synuclein monomer and other soluble proteins in the supernatant were removed, and the fibril pellet was resuspended in 100 μL solution of Tris-HCl (20 mM) and NaCl (100 mM). This fibril suspension was used in a bicinchoninic acid (BCA) protein assay along with a bovine serum albumin (BSA) standard curve to determine the concentration of fibrils in the 72 hour fibril reaction mixture.
To prepare the fibrils for performing binding assays, the fibril reaction mixture prepared above was centrifuged at 18,000×g for 10 minutes.
Once the ThT-α-synuclein saturation binding curve and dissociation constant (Kd) were determined the competitive assay for determining the binding affinity of various test compounds was conducted. […] The mixture was incubated at room temperature for 60 minutes on the shaking plate. The fluorescent intensity for each cell was measured by the fluorescence reader at λex and λem. The Ki value for each compound was calculated by the corresponding inhibition curve.
The Ki values were derived from the EC50 values using the Cheng-Prusoff equation: Ki=EC50/(1+[radioligand]/Kd). See FIGS. 17.1-31.2 for the inhibition curves for each compound in the ThioT competitive binding assay.

[3] = average, read-out: Ki (nM) α-syn (avg)
[4] = individual determinations, read-out: Ki (nM) α-syn
[5] = average, read-out: EC50 (nM) EC50 (avg)
[6] = individual determinations, read-out: EC50 (nM) EC50

## O=C(Nc1ccc(OCC[18F])cc1)c1ccc(/C=C/c2ccncc2)cc1 [[^18F]TZ-23-88]
[1]; 5 min post injection
  Biodistribution: Blood: 2.50 ± 0.13 % ID/g
  Biodistribution: Bone: 4.07 % ID/g and 4.07 ± 0.50 % ID/g
  Biodistribution: Brain: 4.59 % ID/g and 4.69 ± 0.70 % ID/g
  Biodistribution: Fat: 2.43 ± 0.42 % ID/g
  Biodistribution: Heart: 4.82 ± 0.47 % ID/g
  Biodistribution: Kidney: 35.67 ± 1.48 % ID/g
  Biodistribution: Liver: 16.30 ± 3.53 % ID/g
  Biodistribution: Lung: 8.50 ± 0.60 % ID/g
  Biodistribution: Muscle: 2.60 ± 0.19 % ID/g
  Biodistribution: Pancreas: 4.91 ± 0.68 % ID/g
  Biodistribution: Spleen: 3.12 ± 0.12 % ID/g
[1]; 30 min post injection
  Biodistribution: Blood: 2.30 ± 0.05 % ID/g
  Biodistribution: Bone: 28.50 % ID/g and 28.50 ± 2.81 % ID/g
  Biodistribution: Brain: 4.07 % ID/g and 4.07 ± 0.21 % ID/g
  Biodistribution: Fat: 1.70 ± 0.17 % ID/g
  Biodistribution: Heart: 2.23 ± 0.06 % ID/g
  Biodistribution: Kidney: 15.72 ± 1.06 % ID/g
  Biodistribution: Liver: 19.56 ± 0.97 % ID/g
  Biodistribution: Lung: 2.57 ± 0.15 % ID/g
  Biodistribution: Muscle: 1.35 ± 0.04 % ID/g
  Biodistribution: Pancreas: 3.02 ± 0.19 % ID/g
  Biodistribution: Spleen: 1.59 ± 0.08 % ID/g
[1]; 60 min post injection
  Biodistribution: Blood: 1.28 ± 0.06 % ID/g
  Biodistribution: Bone: 42.68 % ID/g and 42.68 ± 1.69 % ID/g
  Biodistribution: Brain: 3.21 % ID/g and 3.21 ± 0.14 % ID/g
  Biodistribution: Fat: 0.69 ± 0.10 % ID/g
  Biodistribution: Heart: 1.23 ± 0.05 % ID/g
  Biodistribution: Kidney: 5.59 ± 0.29 % ID/g
  Biodistribution: Liver: 10.71 ± 0.80 % ID/g
  Biodistribution: Lung: 1.31 ± 0.07 % ID/g
  Biodistribution: Muscle: 0.75 ± 0.07 % ID/g
  Biodistribution: Pancreas: 1.84 ± 0.33 % ID/g
  Biodistribution: Spleen: 0.90 ± 0.07 % ID/g
[1]; 120 min post injection
  Biodistribution: Blood: 0.70 ± 0.05 % ID/g
  Biodistribution: Bone: 49.39 % ID/g and 49.39 ± 8.21 % ID/g
  Biodistribution: Brain: 2.37 % ID/g and 2.37 ± 0.14 % ID/g
  Biodistribution: Fat: 0.23 ± 0.12 % ID/g
  Biodistribution: Heart: 0.71 ± 0.12 % ID/g
  Biodistribution: Kidney: 1.94 ± 0.29 % ID/g
  Biodistribution: Liver: 5.59 ± 0.39 % ID/g
  Biodistribution: Lung: 0.71 ± 0.09 % ID/g
  Biodistribution: Muscle: 0.55 ± 0.21 % ID/g
  Biodistribution: Pancreas: 0.98 ± 0.10 % ID/g
  Biodistribution: Spleen: 0.47 ± 0.04 % ID/g
[1]
  crossing of the blood brain barrier: can cross the blood brain barrier and enter the brain
[1]; judged from increasing bone uptake in the mice
  defluorination: strong defluorination

## O=C(Nc1ccc(OCCC[18F])cc1)c1ccc(/C=C/c2ccncc2)cc1 [[^18F]TZ-23-92]
[1]; 5 min post injection
  Biodistribution: Blood: 2.40 ± 0.39 % ID/g
  Biodistribution: Bone: 3.31 % ID/g and 3.31 ± 0.74 % ID/g
  Biodistribution: Brain: 1.51 % ID/g and 1.52 ± 0.18 % ID/g
  Biodistribution: Fat: 1.79 ± 0.55 % ID/g
  Biodistribution: Heart: 2.93 ± 0.34 % ID/g
  Biodistribution: Kidney: 11.17 ± 0.41 % ID/g
  Biodistribution: Liver: 52.44 ± 3.84 % ID/g
  Biodistribution: Lung: 7.70 ± 0.85 % ID/g
  Biodistribution: Muscle: 1.47 ± 0.16 % ID/g
  Biodistribution: Pancreas: 2.03 ± 0.19 % ID/g
  Biodistribution: Spleen: 23.73 ± 4.54 % ID/g
[1]; 30 min post injection
  Biodistribution: Blood: 2.42 ± 0.19 % ID/g
  Biodistribution: Bone: 39.47 % ID/g and 39.48 ± 10.28 % ID/g
  Biodistribution: Brain: 1.55 % ID/g and 1.56 ± 0.08 % ID/g
  Biodistribution: Fat: 1.34 ± 0.30 % ID/g
  Biodistribution: Heart: 2.19 ± 0.19 % ID/g
  Biodistribution: Kidney: 9.10 ± 0.34 % ID/g
  Biodistribution: Liver: 14.47 ± 1.13 % ID/g
  Biodistribution: Lung: 2.30 ± 0.25 % ID/g
  Biodistribution: Muscle: 1.30 ± 0.16 % ID/g
  Biodistribution: Pancreas: 1.87 ± 0.23 % ID/g
  Biodistribution: Spleen: 1.69 ± 0.15 % ID/g
[1]; 60 min post injection
  Biodistribution: Blood: 0.84 ± 0.05 % ID/g
  Biodistribution: Bone: 68.78 % ID/g and 68.78 ± 6.75 % ID/g
  Biodistribution: Brain: 1.46 % ID/g and 1.46 ± 0.16 % ID/g
  Biodistribution: Fat: 0.58 ± 0.13 % ID/g
  Biodistribution: Heart: 0.90 ± 0.07 % ID/g
  Biodistribution: Kidney: 3.87 ± 0.36 % ID/g
  Biodistribution: Liver: 7.00 ± 0.33 % ID/g
  Biodistribution: Lung: 0.83 ± 0.05 % ID/g
  Biodistribution: Muscle: 0.55 ± 0.06 % ID/g
  Biodistribution: Pancreas: 0.98 ± 0.08 % ID/g
  Biodistribution: Spleen: 0.61 ± 0.04 % ID/g
[1]; 120 min post injection
  Biodistribution: Blood: 0.32 ± 0.02 % ID/g
  Biodistribution: Bone: 70.20 % ID/g and 70.20 ± 15.04 % ID/g
  Biodistribution: Brain: 1.0 % ID/g and 1.00 ± 0.11 % ID/g
  Biodistribution: Fat: 0.29 ± 0.10 % ID/g
  Biodistribution: Heart: 0.31 ± 0.02 % ID/g
  Biodistribution: Kidney: 1.67 ± 0.23 % ID/g
  Biodistribution: Liver: 3.50 ± 0.48 % ID/g
  Biodistribution: Lung: 0.36 ± 0.03 % ID/g
  Biodistribution: Muscle: 0.33 ± 0.26 % ID/g
  Biodistribution: Pancreas: 0.61 ± 0.13 % ID/g
  Biodistribution: Spleen: 0.24 ± 0.01 % ID/g
[1]
  crossing of the blood brain barrier: can cross BBB and enter the brain

## COc1ccc(/C=C/c2cc(C)cs2)cc1 [TZ-34-38]
[2]; [3]
  Ki: 252 nM
[2]; [4]
  Ki: 387 nM and 114 nM and 256 nM
[2]; [5]
  EC50: 661 nM
[2]; [6]
  EC50: 1010 nM and 299 nM and 671 nM

## Brc1ccc2nc(/C=C/c3cnccn3)ccc2c1 [TZ-36-24]
[2]; [3]
  Ki: 453 nM
[2]; [4]
  Ki: 453 nM
[2]; [5]
  EC50: 1190 nM
[2]; [6]
  EC50: 1190 nM

## COC(=O)c1ccc(/C=C/c2ccncc2)cc1 [TZ-20-35]
[2]; [3]
  Ki: 16.1 nM
[2]; [4]
  Ki: 16.1 nM

## FC(F)(F)c1ccc(/C=C/c2ccncc2)cc1 [TZ-20-75]
[2]; [3]
  Ki: 36.8 nM
[2]; [4]
  Ki: 36.8 nM

## COc1ccc2nc(/C=C/c3ccnc(Cl)c3)ccc2c1 [TZ-36-42]
[2]; [3]
  Ki: 54 nM
[2]; [4]
  Ki: 52 nM and 56 nM
[2]; [5]
  EC50: 140 nM
[2]; [6]
  EC50: 136 nM and 145 nM

## COc1ccc2c(c1)Oc1cc([N+](=O)[O-])ccc1N2C/C=C/c1ccc(N(C)C)cc1 [TZ-19-140]
[2]; [3]
  Ki: 467 nM
[2]; [4]
  Ki: 467 nM

## COc1ccc(C(=O)C2CCN(C(=O)c3ccc(/C=C/c4ccncc4)cc3)CC2)cc1 [TZ-20-51]
[2]; [3]
  Ki: 184 nM
[2]; [4]
  Ki: 184 nM
